{"source": "paper PMC10758951", "about": "“mRNA display reveals a class of high-affinity bromodomain-binding motifs that are not found in the human proteome” (The Journal of Biological Chemistry, 2023)", "key": {"[1]": {"assay": "Peptide solubility (as observed on sample preparation)", "type": "physicochemical", "conditions": "dissolved in water or experimental buffer; qualitative statement", "experimental": "The concentrations of the peptides used in this study were determined by measuring absorbance at 205 nm ([21]) and NMR ([22]) quantification using a known concentration of 4,4-dimethyl-4-silapentane-1-sulfonic acid as a reference. Peptides were first dissolved in either water or experimental buffer, and measurements were made on the soluble peptide remaining in solution following removal insoluble peptide via centrifugation."}, "BRD3–BD2": {"target": "T1, BRD3–BD2 (Homo sapiens, UniProt Q15059)", "T1 construct": "BRD3 (BD1: 25–147; BD2: 307–419); His tag (N); biotinylation (Avi-type acceptor, vector pQE80L-Navi) (N); made in house; host or cells: Escherichia coli", "T1 sequence (Q15059 307-419)": "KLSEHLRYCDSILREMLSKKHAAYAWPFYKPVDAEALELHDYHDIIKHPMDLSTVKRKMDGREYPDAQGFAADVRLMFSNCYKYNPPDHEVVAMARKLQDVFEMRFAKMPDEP", "assay": "SPR binding of peptides to BET bromodomains", "conditions": "peptide flowed", "from_the_text": "(§1) The BDs from human BRD2 (BD1: 65–194; BD2: 347–455), BRD3 (BD1: 25–147; BD2: 307–419), and BRD4 (BD1: 42–168; BD2: 348–464) were expressed in Escherichia coli from pQE80L-Navi (Qiagen) as N-terminally His-tagged and biotinylated proteins for SPR. For other experiments, they were expressed from pGEX-6P (Cytiva) as N-terminal glutathione-S-transferase-fusion proteins. Expression and purification, via affinity chromatography and size-exclusion chromatography, of unlabeled and uniformly ^15N-labeled proteins were carried out as described previously ([11]).\n(§2) Measurements were conducted on a T200 (Cytiva) and data analyzed using the Biacore Insight Evaluation Software. Experiments were performed at 4 °C in multicycle kinetics mode and fit using the equilibrium steady state affinity model (1:1 Langmuir binding isotherm). For experiments measuring the binding of the 2AcK peptide, biotinylated BET BDs were immobilized on a biotin CAP chip (Cytiva) with a target density of ∼1000 to 2000 RU and peptide was flowed over the chip. A buffer comprising 20 mM Mes (pH 6.5), 150 mM NaCl, 0.05% (v/v) Tween-20 was used as the running buffer. For experiments measuring the binding of 1AcK.4E and 2AcK.4E, C-terminally biotinylated variants of the peptides were immobilized on a CM5 chip (Cytiva), which had been amine-coupled with streptavidin, to a target density of ∼50 to 100 RU and unlabeled BET BDs were flowed over the chip. A buffer comprising 20 mM Hepes (pH 7.5), 150 mM NaCl, and 0.05% (v/v) Tween-20 was used as the running buffer."}, "BRD2–BD2": {"target": "T2, BRD2–BD2 (Homo sapiens, UniProt P25440)", "T2 construct": "human BRD2 (BD1: 65–194; BD2: 347–455); His tag (N); biotinylation (Avi-type acceptor, vector pQE80L-Navi) (N); made in house; host or cells: Escherichia coli", "T2 sequence (P25440 347-455)": "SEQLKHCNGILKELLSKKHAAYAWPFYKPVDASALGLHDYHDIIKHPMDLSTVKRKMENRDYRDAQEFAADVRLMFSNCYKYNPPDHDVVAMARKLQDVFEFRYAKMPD", "assay": "SPR binding of peptides to BET bromodomains", "conditions": "peptide flowed", "from_the_text": "as §1, §2"}, "BRD4–BD2": {"target": "T3, BRD4–BD2 (Homo sapiens, UniProt O60885)", "T3 construct": "BRD4 (BD1: 42–168; BD2: 348–464); His tag (N); biotinylation (Avi-type acceptor, vector pQE80L-Navi) (N); made in house; host or cells: Escherichia coli", "assay": "SPR binding of peptides to BET bromodomains", "conditions": "SPR 4 °C; biotinylated BD immobilized on biotin CAP chip, peptide flowed; 20 mM Mes pH 6.5, 150 mM NaCl, 0.05% Tween-20; steady state 1:1 fit; geometric mean of minimum three measurements", "from_the_text": "as §1, §2"}, "[2]": {"target": "BRD3–BD1, BRD4–BD1, and BRD2–BD1", "assay": "SPR, stated jointly for the BD1 domains", "type": "binding, human", "conditions": "range over BRD3–BD1, BRD4–BD1 and BRD2–BD1; BD immobilized, peptide flowed; equilibrium steady state affinity analysis; read-out: Affinities (KD) for the three BD1 domains, SPR", "from_the_text": "as §1\nMeasurements were conducted on a T200 (Cytiva) and data analyzed using the Biacore Insight Evaluation Software. Experiments were performed at 4 °C in multicycle kinetics mode and fit using the equilibrium steady state affinity model (1:1 Langmuir binding isotherm). For experiments measuring the binding of the 2AcK peptide, biotinylated BET BDs were immobilized on a biotin CAP chip (Cytiva) with a target density of ∼1000 to 2000 RU and peptide was flowed over the chip. A buffer comprising 20 mM Mes (pH 6.5), 150 mM NaCl, 0.05% (v/v) Tween-20 was used as the running buffer. […]"}, "BRD3–BD1": {"target": "T4, BRD3–BD1 (Homo sapiens, UniProt Q15059)", "T4 construct": "BRD3 (BD1: 25–147; BD2: 307–419); His tag (N); biotinylation (Avi-type acceptor, vector pQE80L-Navi) (N); made in house; host or cells: Escherichia coli", "T4 sequence (Q15059 25-147)": "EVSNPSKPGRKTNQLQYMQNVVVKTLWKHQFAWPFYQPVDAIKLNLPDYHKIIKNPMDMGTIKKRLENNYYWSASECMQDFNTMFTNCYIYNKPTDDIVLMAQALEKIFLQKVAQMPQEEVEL", "assay": "Isothermal titration calorimetry (ITC)", "conditions": "ITC 25 °C, BRD3–BD1 titrated into peptide; fit to binding isotherm", "from_the_text": "as §1\nThe affinities and stoichiometry for the interaction of BRD3–BD1 with 2AcK and 2AcK.4E peptides were determined using a MicroCal PEAQ ITC (Malvern Instruments). Titrations of BRD3–BD1 (1 mM) into peptide (25–50 μM) were carried out at 25 °C using a 0.2 μl initial injection and 20 to 24 subsequence 1 to 3 μl injections. Data were analyzed using Malvern MicroCal PEAQ ITC Software, using a protein into buffer baseline correction and fitted with a one-site binding model."}, "[3]": {"conditions": "Fig. 2A, one titration, fit to 1:1 binding model, BD immobilized, Mes pH 6.5, 4 °C"}, "[4]": {"conditions": "SPR 4 °C, biotinylated BD immobilized on biotin CAP chip, 20 mM Mes pH 6.5, 150 mM NaCl, 0.05% Tween-20, steady state 1:1 fit, geometric mean of minimum three measurements"}}, "data": [{"substance": "ALLLAKLYHF [1AcK]", "values": [{"measurement": "Solubility of the peptide (in words)", "setting": "[1]", "result": "not soluble at concentrations high enough to allow measurements to be made"}]}, {"substance": "Ac-AQRSLK(Ac)LLK(Ac)HLYH-NH2 (C-terminus assumed) [2AcK]", "values": [{"measurement": "KD on plot, typical SPR titration, BRD3-BD2", "setting": "BRD3–BD2; [3]", "result": "No binding"}, {"measurement": "KD (SPR) BRD3–BD2", "setting": "BRD3–BD2; [4]", "result": "no measurable binding"}, {"measurement": "KD on plot, typical SPR titration, BRD2-BD2", "setting": "BRD2–BD2; [3]", "result": "No binding"}, {"measurement": "KD (SPR) BRD2–BD2", "setting": "BRD2–BD2; [4]", "result": "no measurable binding"}, {"measurement": "KD (SPR) BRD4–BD2", "setting": "BRD4–BD2", "result": "a small degree of binding observed"}, {"measurement": "Kd", "setting": "[2]", "result": "1000 to 2000", "unit": "nM"}, {"measurement": "Solubility of the peptide (in words)", "setting": "[1]", "result": "slightly more soluble"}, {"measurement": "N value (stoichiometry) from ITC fit", "setting": "BRD3–BD1", "result": "~2.5"}]}]}
